Experimental data taken from patent publication US20170334927A1 (Shanghai Sun-sail Pharmaceutical Science & Technology Co., …, priority 2014, published 2017).
Converted amounts (≈) assume the structure as drawn.

How the values were obtained:
[1] = test system: Mycobacterium tuberculosis H37Rv; assay: Activity test for Mycobacterium tuberculosis (MIC, H37Rv); assay type: cell-based; details: for anti Mycobacterium tuberculosis activity (MIC against H37Rv), times of that of PA-824: relative to PA-824; for anti Mycobacterium tuberculosis activity (MIC against H37Rv), times of that of ethambutol: relative to ethambutol; for MIC: Mycobacterium tuberculosis H37Rv, liquid medium, 37° C., read-out: Minimum inhibitory concentration against H37Rv
Method: The tested strain H37Rv was transferred to liquid medium and cultured for 2 weeks at 37° C.; a small amount of the cultured bacterial solution was pipetted and placed in 4 mL of liquid medium; 10-20 sterile glass beads with a diameter of 2-3 mm were added; the mixture was shaken for 20-30 s and left to sediment for 10-20 min; the supernatant of the bacterial suspension was pipetted and adjusted to a turbidity of 1 MCF (equivalent to 1×10^7 CFU/mL) with the liquid medium for use. Each drug was dissolved to 1 mg/mL with an appropriate amount of DMSO and filtered with a 0.22 μm filter. Then, the solution was diluted to a desired experimental concentration with the liquid medium. The final concentrations of the tested drugs were set as follows: 0.001 μg/mL, 0.002 μg/mL, 0.0039 μg/mL, 0.0078 μg/mL, […], 0.03125 μg/mL, 0.0625 μg/mL, 0.125 μg/mL, 0.25 μg/mL, 0.5 μg/mL and 1 μg/mL, a total of 11 concentration gradients. 100 μL of each of the above-mentioned drug solutions was added to a 96-well microwell plate, then 100 μL bacterial solution with a concentration of 1 mg/mL was added to allow the drug concentration to reach the final set concentration, and cultured at 37° C. Three groups in parallel were set for each drug dilution with inoculation amounts of 100%, 10% and 1%, respectively, while no drug was added to the control group.

[2] = physchem; assay type: physicochemical; details: for solubility at 3 days: pH 1.2, simulated gastric fluid, thermodynamic from solid
Method: 3-5 mg of compound to be tested was added to 0.5 mL of aqueous HCl solution (pH=1.2) and the mixture was shaken for three days on a shaker; the sample was centrifuged for 5 min at 10,000 rpm in a centrifuge; a volumetric flask (50 mL) was loaded with 2 mL of supernatant and water was added to a volume at the graduation mark to prepare a sample solution; and 2.6 mg of sample was precisely weighed into a volumetric flask (50 mL), an appropriate amount of methanol was added to dissolve the sample, and water was added to a volume at the graduation mark and shaken well to give a control sample solution. 20 μL of sample solution and control sample solution were each injected, and tested by liquid chromatography. The solubility was calculated as follows:
Solubility (mg/mL)=C (control)*25*A (sample)/A (control)
C (control): concentration of the control sample
A (sample): peak area of the liquid chromatogram of the sample solution
A (control): peak area of the liquid chromatogram of the control sample solution

[3] = Drug metabolism test (pharmacokinetics, oral, mice); assay type: in vivo, ICR mice; details: 10 mg/kg; for AUC(0-inf) / AUC(0-t) / Cmax / MRT / Tmax / half-life: male, ICR, mouse, po, orally (intragastric), plasma; for pharmacokinetic properties (in words): orally, judgement on Table 6
Method: 18 healthy male ICR mice with a body weight of 18-22 g were administered drugs by intragastric administration, with an administration dose of 10 mg/kg and an administration volume of 10 mL/kg, respectively. These mice were fasted for 12 h before the test and had free access to drinking water. These mice were fed 2 h after administration uniformly. 0.3 mL of blood was taken from the postocular venous plexus of a mouse at the set time points, placed in a heparinized test tube and centrifuged for 10 min at 3000 rpm; and plasma was separated and frozen in a refrigerator at −20° C. When measured, the sample was treated through the method for treating the plasma sample, and the drug concentration in plasma was determined by LC-MS/MS and the pharmacokinetic parameters of the drug were calculated.

O=[N+]([O-])c1cn2c(n1)OC[C@@H](NCc1ccc(N3CCC(Oc4ccc(OC(F)(F)F)cc4)CC3)nc1)C2 [Compound 1, (S)-2-nitro-N-((6-(4-(4-(trifluoromethoxy)phenoxy)piperidin-1-yl)pyrid-3-yl)methyl)-6,7-dihydro-5H-imidazo[2,1-b][1,3]oxazin-6-amine]
anti Mycobacterium tuberculosis activity (MIC against H37Rv), times of that of PA-824 [1]: 8 times
anti Mycobacterium tuberculosis activity (MIC against H37Rv), times of that of ethambutol [1]: 64 times
MIC [1]: 0.0078 µg/mL (≈ 0.0146 µM)
solubility at 3 days [2]: 784 µg/mL (≈ 1470 µM)
AUC(0-inf) [3]: 32300 ng·h/mL
AUC(0-t) [3]: 31300 ng·h/mL
Cmax [3]: 2670 ng/mL
MRT [3]: 6.64 h
Tmax [3]: 2.33 h
half-life [3]: 4.76 h
pharmacokinetic properties (in words) [3]: excellent

O=[N+]([O-])c1cn2c(n1)OC[C@@H](NCc1ccc(N3CCC(Oc4ccc(OC(F)(F)F)cc4)C(F)C3)nc1)C2 (stereo partly drawn) [Compound 3, (6S)—N-((6-(3-fluoro-4-(4-(trifluoromethoxy)phenoxy)piperidin-1-yl)pyrid-3-yl)methyl)-2-nitro-6,7-dihydro-5H-imidazo[2,1-b][1,3]oxazin-6-amine]
MIC [1]: 0.0156 µg/mL (≈ 0.0282 µM)

O=[N+]([O-])c1cn2c(n1)OC[C@@H](NCc1ccc(N3CCN(c4ccc(OC(F)(F)F)cc4)CC3)nc1)C2 [Compound 4, (S)-2-nitro-N-((6-(4-(4-(trifluoromethoxy)phenyl)piperazin-1-yl)pyrid-3-yl)methyl)-6,7-dihydro-5H-imidazo[2,1-b][1,3]oxazin-6-amine]
anti Mycobacterium tuberculosis activity (MIC against H37Rv), times of that of PA-824 [1]: 32 times
anti Mycobacterium tuberculosis activity (MIC against H37Rv), times of that of ethambutol [1]: 256 times
MIC [1]: 0.00195 µg/mL (≈ 0.00375 µM)
Solubility ([2]; 3 days, pH 1.2): 1257.2 µg/mL (≈ 2420 µM)
solubility at 3 days [2]: > 1000 µg/mL
AUC(0-inf) [3]: 17300 ng·h/mL
AUC(0-t) [3]: 17200 ng·h/mL
Cmax [3]: 1780 ng/mL
MRT [3]: 5.56 h
Tmax [3]: 2 h
half-life [3]: 3.38 h

CC1CN(c2ccc(CN[C@@H]3COc4nc([N+](=O)[O-])cn4C3)cn2)CCN1c1ccc(OC(F)(F)F)cc1 (stereo partly drawn) [Compound 5, (3S)—N-((6-(3-methyl-4-(4-(trifluoromethoxy)phenyl)piperazin-1-yl)pyrid-3-yl)methyl)-7-nitro-3,4-dihydro-2H-imidazo[2,1-b][1,3]oxazin-3-amine]
anti Mycobacterium tuberculosis activity (MIC against H37Rv), times of that of PA-824 [1]: 16 times
anti Mycobacterium tuberculosis activity (MIC against H37Rv), times of that of ethambutol [1]: 128 times
MIC [1]: 0.0039 µg/mL (≈ 0.00731 µM)

CC1CN(c2ccc(OC(F)(F)F)cc2)CCN1c1ccc(CN[C@@H]2COc3nc([N+](=O)[O-])cn3C2)cn1 (stereo partly drawn) [Compound 6, (3S)—N-((6-(2-methyl-4-(4-(trifluoromethoxy)phenyl)piperazin-1-yl)pyrid-3-yl)methyl)-7-nitro-3,4-dihydro-2H-imidazo[2,1-b][1,3]oxazin-3-amine]
anti Mycobacterium tuberculosis activity (MIC against H37Rv), times of that of PA-824 [1]: 32 times
anti Mycobacterium tuberculosis activity (MIC against H37Rv), times of that of ethambutol [1]: 256 times
MIC [1]: 0.00195 µg/mL (≈ 0.00366 µM)

N#CC1(c2ccc(OC(F)(F)F)cc2)CCN(c2ccc(CN[C@@H]3COc4nc([N+](=O)[O-])cn4C3)cn2)CC1 [Compound 10, (S)-1-(5-(((7-nitro-3,4-dihydro-2H-imidazo[2,1-b][1,3]oxazin-3-yl)amino)methyl)pyridin-2-yl)-4-(4-(trifluoromethoxy)phenyl)piperidine-4-carbonitrile]
anti Mycobacterium tuberculosis activity (MIC against H37Rv), times of that of PA-824 [1]: 32 times
anti Mycobacterium tuberculosis activity (MIC against H37Rv), times of that of ethambutol [1]: 256 times
MIC [1]: 0.00195 µg/mL (≈ 0.00359 µM)
solubility at 3 days [2]: 522 µg/mL (≈ 960 µM)
AUC(0-inf) [3]: 28800 ng·h/mL
AUC(0-t) [3]: 28800 ng·h/mL
Cmax [3]: 2030 ng/mL
MRT [3]: 4.68 h
Tmax [3]: 2.18 h
half-life [3]: 3.35 h
pharmacokinetic properties (in words) [3]: excellent

O=[N+]([O-])c1cn2c(n1)OC[C@@H](NCc1ccc(N3CC4CN(c5ccc(OC(F)(F)F)cc5)CC4C3)nc1)C2 (stereo partly drawn) [Compound 11, (6S)-2-nitro-N-((6-(5-(4-(trifluoromethoxy)phenyl)hexahydropyrrolo[3,4-c]pyrrol-2(1H)-yl)pyrid-3-yl)methyl)-6,7-dihydro-5H-imidazo[2,1-b][1,3]oxazin-6-amine]
MIC [1]: 0.0312 µg/mL (≈ 0.0573 µM)

O=[N+]([O-])c1cn2c(n1)OC[C@@H](NCc1ccc(N3CCC4(CC3)CN(c3ccc(OC(F)(F)F)cc3)C4)nc1)C2 [Compound 13, (S)-2-nitro-N-((6-(2-(4-(trifluoromethoxy)phenyl)-2,7-diazaspiro[3.5]nonan-7-yl)pyrid-3-yl)methyl)-6,7-dihydro-5H-imidazo[2,1-b][1,3]oxazin-6-amine]
MIC [1]: 0.0156 µg/mL (≈ 0.0279 µM)

O=[N+]([O-])c1cn2c(n1)OC[C@@H](NCc1ccc(N3C4CCC3CC(Oc3ccc(OC(F)(F)F)cc3)C4)nc1)C2 (stereo partly drawn) [Compound 14, (6S)-2-nitro-N-((6-(3-(4-(trifluoromethoxy)phenoxy)-8-azabicyclo[3.2.1]octan-8-yl)pyrid-3-yl)methyl)-6,7-dihydro-5H-imidazo[2,1-b][1,3]oxazin-6-amine]
anti Mycobacterium tuberculosis activity (MIC against H37Rv), times of that of PA-824 [1]: 8 times
anti Mycobacterium tuberculosis activity (MIC against H37Rv), times of that of ethambutol [1]: 64 times
MIC [1]: 0.0078 µg/mL (≈ 0.0139 µM)

O=[N+]([O-])c1cn2c(n1)OC[C@@H](NCc1cnc(N3CCC(Oc4ccc(OC(F)(F)F)cc4)CC3)nc1)C2 [Compound 15]
MIC [1]: 0.0312 µg/mL (≈ 0.0584 µM)

O=[N+]([O-])c1cn2c(n1)OC[C@@H](NCc1cnc(N3CC4CN(c5ccc(OC(F)(F)F)cc5)CC4C3)nc1)C2 (stereo partly drawn) [Compound 25]
MIC [1]: 0.0156 µg/mL (≈ 0.0285 µM)

O=[N+]([O-])c1cn2c(n1)OC[C@@H](NCc1cnc(N3C4CCC3CC(Oc3ccc(OC(F)(F)F)cc3)C4)nc1)C2 (stereo partly drawn) [Compound 28]
MIC [1]: 0.0156 µg/mL (≈ 0.0278 µM)

COc1nc(N2CCN(c3ccc(OC(F)(F)F)cc3)CC2)ncc1CN[C@@H]1COc2nc([N+](=O)[O-])cn2C1 [Compound 38, (S)—N-((4-methoxy-2-(4-(4-(trifluoromethoxy)phenyl)piperazin-1-yl)pyrimidin-5-yl)methyl)-2-nitro-6,7-dihydro-5H-imidazo[2,1-b][1,3]oxazin-6-amine]
MIC [1]: 0.0156 µg/mL (≈ 0.0283 µM)

N#Cc1nc(N2CCN(c3ccc(OC(F)(F)F)cc3)CC2)ncc1CN[C@@H]1COc2nc([N+](=O)[O-])cn2C1 [Compound 40, (S)-5-(((2-nitro-6,7-dihydro-5H-imidazo[2,1-b][1,3]oxazin-6-yl)amino)methyl)-2-(4-(4-(trifluoromethoxy)phenyl)piperazin-1-yl)pyrimidine-4-carbonitrile]
anti Mycobacterium tuberculosis activity (MIC against H37Rv), times of that of PA-824 [1]: 8 times
anti Mycobacterium tuberculosis activity (MIC against H37Rv), times of that of ethambutol [1]: 64 times
MIC [1]: 0.0078 µg/mL (≈ 0.0143 µM)

O=[N+]([O-])c1cn2c(n1)OC[C@@H](NCc1cnc(N3CCN(c4ccc(OC(F)(F)F)cc4)CC3)nc1C(F)(F)F)C2 [Compound 41, (S)-2-nitro-N-((2-(4-(4-(trifluoromethoxy)phenyl)piperazin-1-yl)-4-(trifluoromethyl)pyrimidin-5-yl)methyl)-6,7-dihydro-5H-imidazo[2,1-b][1,3]oxazin-6-amine]
MIC [1]: 0.0312 µg/mL (≈ 0.0531 µM)

CN(Cc1cnc(N2CCN(c3ccc(OC(F)(F)F)cc3)CC2)nc1)[C@@H]1COc2nc([N+](=O)[O-])cn2C1 [Compound 44, (S)—N-methyl-2-nitro-N-((2-(4-(4-(trifluoromethoxy)phenyl)piperazin-1-yl)pyrimidin-5-yl)methyl)-6,7-dihydro-5H-imidazo[2,1-b][1,3]oxazin-6-amine]
anti Mycobacterium tuberculosis activity (MIC against H37Rv), times of that of PA-824 [1]: 32 times
anti Mycobacterium tuberculosis activity (MIC against H37Rv), times of that of ethambutol [1]: 256 times
MIC [1]: 0.00195 µg/mL (≈ 0.00365 µM)

CC[C@@H](CO)NCCN[C@@H](CC)CO [Ethambutol, reference compound]
MIC [1]: 0.5 µg/mL (≈ 2.45 µM)
